The values below come from patent publication US8546323B2, “Thrombospondin-1 derived peptides and treatment methods” (priority 2005, dated 2013).

Entries after “also recorded” stand apart in the source; their conditions may differ.

In data set [1] the test system is binding of TSP-1 to macrophages. Kind of data set: cell adhesion assay: macrophage adhesion to TSP-1-coated wells, competition by peptides. Format: cell-based, murine. The conditions noted are these: wells pre-plated with TSP-1 (40 microg./ml); cells mixed with peptide (0.01M) for 30 minutes. As to the method:
For the peptide experiment, the cells were mixed in suspension with respective peptide (0.01M) for 30 minutes prior to being introduced to TSP-1 wells.
TSP-1 has multiple potential binding sites for binding macrophages including CD44, IAP, and CD36 (FIG. 1). However there has been no previously established β2-integrin binding motif described in TSP-1. A prior-study using phage sequence assays has reported that the peptide motif D(D/E)(G/L)W (SEQ ID NO: 7) competes with pro-MMP-9 binding to β2-integrin [40]. Through a sequence search of the complete TSP-1 peptide sequence we have determined that TSP-1 has two such putative β2 integrin binding sites: one in TSR-1-(DDGW (SEQ ID NO: 3), a perfect consensus) and another in TSR-2 (DGGW SEQ ID NO: 3), a close consensus with substitution in position 2) as shown in FIG. 2. We have used cell adhesion assay to assess binding of TSP-1 to macrophages (FIG. 6). Using this assay we have been able to show the impact of the D-Xaa-G-W (SEQ ID NO: 5) motif in TSP-1 adhesion to macrophages.

Data set [2] concerns TGF-β1. The conditions noted are these: TSP-1 knockout mouse; cited from earlier work.
The target of data set [3] is T1, TGF-β1 (Mus musculus, UniProt P04202).
T1 construct: endogenous in cells; host or cells: Tissue culture
T1 sequence (P04202 30-278 limits assumed): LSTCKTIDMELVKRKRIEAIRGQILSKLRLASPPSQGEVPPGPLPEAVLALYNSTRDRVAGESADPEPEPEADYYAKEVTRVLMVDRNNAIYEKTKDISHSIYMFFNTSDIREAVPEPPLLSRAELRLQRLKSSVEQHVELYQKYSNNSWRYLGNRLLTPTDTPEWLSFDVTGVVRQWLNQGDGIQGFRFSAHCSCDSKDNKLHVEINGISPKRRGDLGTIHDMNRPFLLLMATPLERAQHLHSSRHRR
In words: synthetic peptide in tissue culture: TGF-β1 activation. Format: cell-based. An excerpt:
(§1) As such we have identified the two active sites in TSP-1 important for both (1) decreasing MMP-9 activity (2) and activating TGF-β1. Using this knowledge, many peptides having plaque stabilizing properties can be designed and synthesized. We designed and synthesized a representative synthetic sequence combining these two active sites: KRFKQDDGWSPWSEW (SEQ ID NO: 10).

For data set [4], the system named is MMP-9. In words: synthetic peptide in tissue culture: inhibition of MMP-9 activation. Format: cell-based.
From the text: as §1

Data set [5] deals with atherosclerotic plaque. Kind of data set: peptide infusion (alzet pump) in TSP−/−ApoE−/− mice, atherosclerotic lesion composition. Format: in vivo, mouse. An excerpt:
Generally, “stabilized plaque” is evidenced by limited inflammation at the site of the lesion and/or significant fibrosis within the plaque. These features may be observed by a comparison a TSP-1 deficient control system such as the TSP−/− mice described above. Generally, stabilized plaque may be identified by a comparison of fibrosis and inflammation in treated and untreated animals. The balance between fibrosis and inflammation within the plaque has been a well accepted surrogate marker for propensity of plaque to rupture in multiple different animal models.

The test system of data set [6] is atherosclerotic plaque. Kind of data set: peptide infusion in apoE−/− mice, atherosclerotic plaque. Format: in vivo, mouse.
The test system of data set [7] is MMP-9. In words: transient transfection of RAW macrophage cells, active MMP-9/total MMP-9 ELISA. Format: cell-based, mouse. The note with it: RAW cells transiently transfected with TSP-1 or TSP-1 mutant; for mutants: fate of the TSP-1 effect. An excerpt:
(§2) (A) There are two putative β2 integrin binding domain in TSR-1 and TSR-2. Note that these two binding domains are adjacent (and overlap by one amino acid) the two binding domains for TGF-β1. We have mutated the two DxGW motifs as shown in the box. […] This effect is abolished by TSP mutants: DM and less so by Mut1. […] This affect is abolished with both TSP-1 mutants Mut1 and Mut2. In summary the DxGW motif in TSR-1 and TSR-2 appear to mediate the effects on of TSP-1 on TGF-β1 activation and MMP-9 inhibition in this cell assay system.
We have shown TSP-1 binding, to macrophages through the same motif and we postulate one potential mechanism for TSP-1 inhibition, of MMP-9 activity may involve displacement of pro-MMP-9 from cell surface (FIG. 7) by competition for binding. To test this hypothesis we generated various mutants of TSP-1 involving either or both potential β2-intergin binding motif in TSP-1 (FIG. 2). […] This effect was reversed by mutation of the TSR-1 motif but less so with mutation of the TSR-2 motif.
Background: In an ELISA, binding on a coated surface is turned into a signal by an enzyme label.

The test system of data set [8] is TGF-β1. In words: transient transfection of RAW macrophage cells, luciferase induction via TGF-β1 promoter responsive element. The conditions noted are these: RAW cells transiently transfected with TSP-1 or TSP-1 mutant; cell lysate luciferase; for mutants: fate of the TSP-1 effect. Format: cell-based, mouse.
From the text: as §2
Furthermore, using our mutants we have observed that WSPW (SEQ ID NO: 9) motif in TSR-2 is primarily responsible for TGF-β1 activation by TSP-1.

The mark [9] stands for this setting: 8-25 μg per day for 5 weeks, versus untreated TSP−/− mice.

In the case of ADGW, in data set [1], the “interference with macrophage adhesion to TSP-1” value was “partial interference”.
Still for that read-out and setting: then DDGA (DGGW), with “lack of interference”; and DDGW, with “sufficient to inhibit cell adhesion to TSP-1”.
On to KRFK, for which, in data set [2], the “rescue of TSP-1 knockout phenotype (localized alveolar inflammation and chronic pneumonia)” value is “rescues this phenotype”.
For the substance KRFKQDDGWSPWSEW, the “ability to activate TGF-β1” value in data set [3] is “activate TGF-β1”. Besides, the “ability to inhibit activation of MMP-9” value in data set [4] was “inhibit activation of MMP-9”. For the same substance, in data set [5] (setting [9]), the “inflammation (macrophages) in the intimal lesion” value is on record as “decreased inflammation (macrophages) in the intimal lesion”; the “lipid deposition within the intimal lesions” value is “decreased lipid deposition within the intimal lesions”; the “matrix (collagen and elastin) deposition within the lesion” value is “increased matrix (as measured by collagen and elastin) deposition within the lesion”. For the same substance, in data set [5] (alzet infusion pump, 8-25 μg per day for 5 weeks), the “rescue of the phenotype of TSP−/−ApoE−/− mice (decrease macrophages, increase matrix within the lesion)” value is listed as “sufficient to rescue the phenotype”. Further, in data set [5] (mouse model of atherosclerosis), the plaque stabilizing activity entry is reported as “active in stabilizing plaque”. Also, the “plaque stabilization in presence of endogenous TSP-1” value in data set [6] was “beneficial effect”.
In the case of “TSP-1: matricellular protein thrombospondin-1, a trimer with a chain molecular mass of 150 kda”, the “MMP-9 activity (active MMP-9/total MMP-9), conversion of pro-MMP-9 to the active form” value in data set [7] was “decreases MMP-9 activity; also recorded: decreased conversion of pro-MPP-9 to the active form”. Also, the TGF-β1 activity result in data set [8] is on record as “increases TGF-β1 activity; also recorded: activates TGF-β1”.
